Experimental data reported in patent US20230114728A1 (Venatorx Pharmaceuticals, Inc., priority 2019, published 2023).
Values after ≈ are worked out from the molar mass of the structure shown. Where two headings read alike, the source gives them in different places.

What was measured:
E. coli K12 PBP3 = target: T1, E. coli K12 PBP3 (Escherichia coli, UniProt P0AD68); experiment: biochemical; type: binding
T1 construct: made in house
In short: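 A. baumannii PBP2 (2.5 μM) and PBP3 (0.2 μM) were run in 25 mM Tris pH 8.0 buffer with Tween 20; E. coli PBP3 (1.5 μM) and N. gonorrhoeae PBP2 ([…]) in 50 mM Hepes pH 8.0 buffer.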

P. aeruginosa PBP3 = target: T2, P. aeruginosa PBP3 (Pseudomonas aeruginosa, UniProt G3XD46); experiment: Bocillin-FL fluorescence polarization competition binding assay, P. aeruginosa PBP3; conditions: fluorescence polarization competition binding assay using Bocillin-FL
T2 construct: made in house
In short: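 Inhibitor competition with Bocillin-FL for P. aeruginosa PBP3 was followed by fluorescence polarization on a Cytation3 (BioTek) reader, using g-factor 0.96, 490 nm excitation and 520 nm emission. The enzyme was at 0.75 μM and the probe at 0.1 μM in Hepes/NaCl/glycerol buffer, 80 μl per well. FP was recorded immediately after probe addition for up to 60 minutes. Potency was expressed as EC50, the concentration that reduces bound probe by 50%.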

[1] = tested on: N. gonorrhoeae ATCC 49226; experiment: Liquid broth MIC in Fastidious broth; type: cell-based; conditions: Neisseria gonorrhoeae
Description: (§1) Example V: In Vitro Antibacterial Assays for N. gonorrhoeae Strains
(§2) Additional antibacterial testing of the series was performed in 8 reference strains of N. gonorrhoeae (ATCC 49226, FA1090, WHO G, WHO L, WHO K, H041, WHO Z, and WHO Q). ATCC 49226, FA1090, WHO G, and WHO L produce wild type or wild-type like PBP2. WHO K, H041, WHO Z, and WHO Q produce mosaic PBP2. Liquid broth-based assays were used for antibacterial testing of PBP inhibitors in Neisseria gonorrhoeae. Briefly, cryo-preserved bacterial cultures of clinical strains were streaked for isolation on Chocolate Agar (72 g/L (2×) GC Agar Base (BD #228950) and 2% (2×) Hemoglobin was autoclaved at 121° C. for 20 minutes to sterilize. Once cooled to ˜50° C. the 2× GC Agar Base and 2× Hemoglobin solutions are combined and 1% IsoVitaleX Enrichment (BD #211876) was added to the solution). Strains were incubated at 36° C. and 5% CO2 to allow growth of colonies, 24 hours before inoculum preparation. 2-fold serial dilutions of test compounds were conducted in a 96 well plate with a final volume of 75 μL per well at 2-fold the final desired concentration in Fastidious broth (Remel #R07664). For preparation of assay inoculum, a direct suspension was prepared by aseptically swabbing all colonies from agar plates into culture tubes containing 2 mL of fresh sterile saline. After the dilution plates were set up, direct suspensions were then diluted in a cuvette containing sterile saline and the optical density was measured at 600 nm. Inocula were diluted such that 75 μL of this culture in Fastidious broth results in a starting bacterial concentration of 5×10^5 CFU/mL when added to the dilution plates. The plates were incubated for ˜24 hours at 36° C. and 5% CO2. The MIC was read visually as the lowest concentration well with <10% bacterial growth compared to wells of full growth.

N. gonorrhoeae FA1090 = experiment: Liquid broth MIC in Fastidious broth; type: cell-based; conditions: Neisseria gonorrhoeae
Description: as §1, §2

N. gonorrhoeae H041 = experiment: Liquid broth MIC in Fastidious broth; type: cell-based; conditions: Neisseria gonorrhoeae, H041, read-out: Minimum Inhibitory Concentration, N. gonorrhoeae H041
Description: as §1, §2

N. gonorrhoeae WHO G = experiment: Liquid broth MIC in Fastidious broth; type: cell-based; conditions: Neisseria gonorrhoeae, read-out: Minimum Inhibitory Concentration, N. gonorrhoeae WHO G
Description: as §1, §2

N. gonorrhoeae WHO K = experiment: Liquid broth MIC in Fastidious broth; type: cell-based; conditions: Neisseria gonorrhoeae, read-out: Minimum Inhibitory Concentration, N. gonorrhoeae WHO K
Description: as §1, §2

N. gonorrhoeae WHO L = experiment: Liquid broth MIC in Fastidious broth; type: cell-based; conditions: Neisseria gonorrhoeae, read-out: Minimum Inhibitory Concentration, N. gonorrhoeae WHO L
Description: as §1, §2

[2] = ATCC49226, N. gonorrhoeae strain ATCC 49226, Fastidious broth, read-out: Minimum Inhibitory Concentration, N. gonorrhoeae ATCC 49226
[3] = N. gonorrhoeae strain FA1090, Fastidious broth, read-out: Minimum Inhibitory Concentration, N. gonorrhoeae FA1090
[4] = N. gonorrhoeae strain WHO G, Fastidious broth
[5] = N. gonorrhoeae strain WHO L, Fastidious broth

T1 sequence (P0AD68 1-577): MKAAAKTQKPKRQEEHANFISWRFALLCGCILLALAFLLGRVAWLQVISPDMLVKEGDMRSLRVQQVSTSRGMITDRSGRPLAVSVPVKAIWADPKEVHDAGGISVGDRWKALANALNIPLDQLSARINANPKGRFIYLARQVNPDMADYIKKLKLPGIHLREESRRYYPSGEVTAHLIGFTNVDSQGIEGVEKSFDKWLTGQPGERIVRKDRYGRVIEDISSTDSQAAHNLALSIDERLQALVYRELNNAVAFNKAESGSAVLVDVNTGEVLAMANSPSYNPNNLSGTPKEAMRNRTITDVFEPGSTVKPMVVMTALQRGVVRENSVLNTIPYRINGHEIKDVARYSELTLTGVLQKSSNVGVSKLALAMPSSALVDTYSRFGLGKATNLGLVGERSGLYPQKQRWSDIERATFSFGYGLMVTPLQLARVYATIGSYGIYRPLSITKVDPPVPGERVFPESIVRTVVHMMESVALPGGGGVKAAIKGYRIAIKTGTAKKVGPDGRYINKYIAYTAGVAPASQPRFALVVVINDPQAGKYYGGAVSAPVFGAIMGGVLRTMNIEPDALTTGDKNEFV
T2 sequence (G3XD46 whole entry): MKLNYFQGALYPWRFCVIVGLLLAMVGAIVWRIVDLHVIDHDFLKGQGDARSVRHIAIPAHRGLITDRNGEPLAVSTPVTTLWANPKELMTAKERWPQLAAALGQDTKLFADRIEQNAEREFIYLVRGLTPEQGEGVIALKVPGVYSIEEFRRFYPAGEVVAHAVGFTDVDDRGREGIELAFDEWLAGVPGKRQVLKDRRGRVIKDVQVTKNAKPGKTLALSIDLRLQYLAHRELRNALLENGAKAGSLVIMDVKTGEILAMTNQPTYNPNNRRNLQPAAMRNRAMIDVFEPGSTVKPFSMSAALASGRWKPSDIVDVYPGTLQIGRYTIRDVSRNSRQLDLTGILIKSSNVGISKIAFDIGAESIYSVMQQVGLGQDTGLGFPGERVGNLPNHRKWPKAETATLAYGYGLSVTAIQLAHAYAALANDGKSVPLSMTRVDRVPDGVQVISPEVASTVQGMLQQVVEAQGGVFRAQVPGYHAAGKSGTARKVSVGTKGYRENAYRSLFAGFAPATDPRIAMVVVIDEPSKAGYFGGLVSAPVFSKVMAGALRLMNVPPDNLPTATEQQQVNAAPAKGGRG

Row | SMILES | EC50 (E. coli K12 PBP3) [µM] | P. aeruginosa PBP3 Potency (P. aeruginosa PBP3) | MIC [1, 2] [µg/mL] | MIC (N. gonorrhoeae FA1090; [3]) [µg/mL] | MIC (N. gonorrhoeae H041) [µg/mL] | MIC (N. gonorrhoeae WHO G; [4]) [µg/mL] | MIC (N. gonorrhoeae WHO K) [µg/mL] | MIC (N. gonorrhoeae WHO L; [5]) [µg/mL] | MIC ([1]; ATCC49226, read-out: Minimum Inhibitory Concentration, N. gonorrhoeae ATCC 49226) [µg/mL] | MIC (N. gonorrhoeae FA1090; FA1090, read-out: Minimum Inhibitory Concentration, N. gonorrhoeae FA1090) [µg/mL] | MIC (N. gonorrhoeae WHO G) [µg/mL] | MIC (N. gonorrhoeae WHO L) [µg/mL]
1 | CCN1CCN(C(=O)NC(C(=O)N[C@H]2Cc3ccc(F)c(C(=O)O)c3OB2O)c2c(F)cc(O)c(O)c2F)C(=O)C1=O (stereo partly drawn) [Example 36, (3R)-3-(2-(2,6-difluoro-3,4-dihydroxyphenyl)-2-(4-ethyl-2,3-dioxopiperazine-1-carboxamido)acetamido)-7-fluoro-2-hydroxy-3,4-dihydro-2H-benzo[e][1,2]oxaborinine-8-carboxylic acid] | < 30 | D (D represents a potency <10 μM) | 16 to 32 (≈ 26.9 to 53.8 µM) | 4 to 8 (≈ 6.73 to 13.5 µM) | 16 to 32 (≈ 26.9 to 53.8 µM) | 16 to 32 (≈ 26.9 to 53.8 µM) | 16 to 32 (≈ 26.9 to 53.8 µM) | > 64 |  |  |  | 
2 | CCN1CCN(C(=O)NC(C(=O)N[C@H]2Cc3cccc(C(=O)O)c3OB2O)c2ccc(O)c(NC(C)=O)c2)C(=O)C1=O (stereo partly drawn) [Example 17, (3R)-3-(2-(3-acetamido-4-hydroxyphenyl)-2-(4-ethyl-2,3-dioxopiperazine-1-carboxamido)acetamido)-2-hydroxy-3,4-dihydro-2H-benzo[e][1,2]oxaborinine-8-carboxylic acid] | 30 to 500 | D (D represents a potency <10 μM) | > 64 | 1 to 2 (≈ 1.72 to 3.44 µM) | > 64 | > 64 | > 64 | > 64 |  |  |  | 
3 | CCN1CCN(C(=O)NC(C(=O)N[C@H]2Cc3cccc(C(=O)O)c3OB2O)c2cccc(NC(=O)c3cccnc3)c2)C(=O)C1=O (stereo partly drawn) [Example 97, (3R)-3-(2-(4-ethyl-2,3-dioxopiperazine-1-carboxamido)-2-(3-(nicotinamido)phenyl)acetamido)-2-hydroxy-3,4-dihydro-2H-benzo[e][1,2]oxaborinine-8-carboxylic acid] | < 30 | D (D represents a potency <10 μM) | > 64 | 1 to 2 (≈ 1.59 to 3.18 µM) | > 64 | 4 to 8 (≈ 6.37 to 12.7 µM) | > 64 | > 64 |  |  |  | 
4 | CCN1CCN(C(=O)N[C@@H](C(=O)N[C@H]2Cc3cccc(C(=O)O)c3OB2O)c2cc(Cl)c(O)cc2Cl)C(=O)C1=O (single isomer, unassigned) [Example 91] | < 30 | D (D represents a potency <10 μM) | 16 to 32 (≈ 27 to 53.9 µM) | 0.25 to 0.5 (≈ 0.421 to 0.843 µM) | 16 to 32 (≈ 27 to 53.9 µM) | 1 to 2 (≈ 1.69 to 3.37 µM) | 16 to 32 (≈ 27 to 53.9 µM) | > 64 |  |  |  | 
5 | CCN1CCN(C(=O)NC(C(=O)N[C@H]2Cc3cccc(C(=O)O)c3OB2O)c2ccc(C(N)=O)c(O)c2)C(=O)C1=O (stereo partly drawn) [Example 45, (3R)-3-(2-(4-carbamoyl-3-hydroxyphenyl)-2-(4-ethyl-2,3-dioxopiperazine-1-carboxamido)acetamido)-2-hydroxy-3,4-dihydro-2H-benzo[e][1,2]oxaborinine-8-carboxylic acid] | < 30 | D (D represents a potency <10 μM) | 1 to 2 (≈ 1.76 to 3.53 µM) | < 0.125 | 16 to 32 (≈ 28.2 to 56.4 µM) | 0.25 to 0.5 (≈ 0.441 to 0.881 µM) | 16 to 32 (≈ 28.2 to 56.4 µM) | 16 to 32 (≈ 28.2 to 56.4 µM) |  |  |  | 
6 | CCN1CCN(C(=O)N[C@H](C(=O)N[C@H]2Cc3cccc(C(=O)O)c3OB2O)c2cc(Cl)c(O)cc2Cl)C(=O)C1=O (single isomer, unassigned) [Example 92] | > 500 | B (B represents a potency between 30 μM and 500 μM inclusive) | > 64 | 16 to 32 (≈ 27 to 53.9 µM) | > 64 | > 64 | > 64 | > 64 |  |  |  | 
7 | CCN1CCN(C(=O)NC(C(=O)N[C@H]2Cc3cccc(C(=O)O)c3OB2O)c2cccc(S(N)(=O)=O)c2)C(=O)C1=O (stereo partly drawn) [Example 99, (3R)-3-(2-(4-ethyl-2,3-dioxopiperazine-1-carboxamido)-2-(3-sulfamoylphenyl)acetamido)-2-hydroxy-3,4-dihydro-2H-benzo[e][1,2]oxaborinine-8-carboxylic acid] | 30 to 500 | D (D represents a potency <10 μM) | 16 to 32 (≈ 27.2 to 54.5 µM) | 0.25 to 0.5 (≈ 0.426 to 0.851 µM) | 16 to 32 (≈ 27.2 to 54.5 µM) | 1 to 2 (≈ 1.7 to 3.4 µM) | 16 to 32 (≈ 27.2 to 54.5 µM) | > 64 |  |  |  | 
8 | N[C@@H](C(=O)N[C@H]1Cc2ccc(F)c(C(=O)O)c2OB1O)c1ccc(OS(=O)(=O)F)cc1 [Example 32, (R)-3-((R)-2-amino-2-(4-((fluorosulfonyl)oxy)phenyl)acetamido)-7-fluoro-2-hydroxy-3,4-dihydro-2H-benzo[e][1,2]oxaborinine-8-carboxylic acid] | > 500 | A (A represents a potency of >500 μM) |  |  | > 64 |  | > 64 |  | > 64 | > 64 | > 64 | > 64
9 | CCN1CCN(C(=O)NC(C(=O)N[C@H]2Cc3cccc(C(=O)O)c3OB2O)c2ccc(O)c(N)c2)C(=O)C1=O (stereo partly drawn) [Example 29, (3R)-3-(2-(3-amino-4-hydroxyphenyl)-2-(4-ethyl-2,3-dioxopiperazine-1-carboxamido)acetamido)-2-hydroxy-3,4-dihydro-2H-benzo[e][1,2]oxaborinine-8-carboxylic acid] | < 30 | D (D represents a potency <10 μM) | > 64 | 4 to 8 (≈ 7.42 to 14.8 µM) | > 64 | 16 to 32 (≈ 29.7 to 59.3 µM) | > 64 | > 64 |  |  |  | 
10 | CC(C)(C)[C@@H](NC(=O)N1CCN(CCNC(=O)c2c(F)cc(O)c(O)c2Cl)C(=O)C1=O)C(=O)N[C@H]1Cc2ccc(F)c(C(=O)O)c2OB1O [Example 80, (R)-3-((R)-2-(4-(2-(2-chloro-6-fluoro-3,4-dihydroxybenzamido)ethyl)-2,3-dioxopiperazine-1-carboxamido)-3,3-dimethylbutanamido)-7-fluoro-2-hydroxy-3,4-dihydro-2H-benzo[e][1,2]oxaborinine-8-carboxylic acid] | < 30 | D (D represents a potency <10 μM) | 16 to 32 (≈ 22.5 to 45.1 µM) | 4 to 8 (≈ 5.63 to 11.3 µM) | > 64 | 16 to 32 (≈ 22.5 to 45.1 µM) | > 64 | > 64 |  |  |  | 
11 | CS(=O)(=O)N1CCN(C(=O)N[C@@H](C(=O)N[C@H]2Cc3ccc(F)c(C(=O)O)c3OB2O)c2c(F)cc(O)c(O)c2Cl)C1=O (single isomer, unassigned) [Example 35] | < 30 | D (D represents a potency <10 μM) | 16 to 32 (≈ 25.3 to 50.6 µM) | 4 to 8 (≈ 6.32 to 12.6 µM) | > 64 | 16 to 32 (≈ 25.3 to 50.6 µM) | > 64 | > 64 |  |  |  | 
12 | CCN1CCN(C(=O)N[C@@H](C(=O)N[C@H]2Cc3cccc(C(=O)O)c3OB2O)c2cc(O)cc(O)c2)C(=O)C1=O (single isomer, unassigned) [Example 82] | 30 to 500 | D (D represents a potency <10 μM) | 4 to 8 (≈ 7.4 to 14.8 µM) | < 0.125 | 4 to 8 (≈ 7.4 to 14.8 µM) | 0.25 to 0.5 (≈ 0.463 to 0.925 µM) | 4 to 8 (≈ 7.4 to 14.8 µM) | 16 to 32 (≈ 29.6 to 59.2 µM) |  |  |  | 
